Reference: paper PMC11480532, “The rapid-reaction kinetics of an electron-bifurcating flavoprotein, the crotonyl-CoA-dependent NADH:ferredoxin oxidoreductase EtfAB:bcd” (The Journal of Biological Chemistry, 2024)
pKd: −log10 of the molar value.

How the values were obtained:
[1] = target: T1, EtfAB:bcd (crotonyl-CoA-dependent NADH:ferredoxin oxidoreductase), NADH site on the bifurcating FAD of EtfAB (Megasphaera elsdenii, UniProt G0VLZ5+G0VLZ6); test: stopped-flow at […] nm, hyperbolic fit of kobs of bf FAD reduction; format: biochemical; conditions: oxidized complex, 6.5 μM; 50 mM Tris-HCl, 150 mM NaCl, pH 7.5, 10 °C; anaerobic; no ferredoxin or crotonyl-CoA; fast phase (bf FAD); read-out: apparent Kd
T1 construct: gene MELS_2127; full-length recombinant EtfAB and bcd, each with C-terminal Strep-II tag, E. coli BL21, mixed equimolar; assignment of Mels_2126 to EtfA and Mels_2127 to EtfB is inferred from the printed order; with Electron transfer flavoprotein subunit alpha; Acyl-CoA dehydrogenase, short-chain specific (butyryl-CoA dehydrogenase)
T1 sequence (G0VLZ6 1-270): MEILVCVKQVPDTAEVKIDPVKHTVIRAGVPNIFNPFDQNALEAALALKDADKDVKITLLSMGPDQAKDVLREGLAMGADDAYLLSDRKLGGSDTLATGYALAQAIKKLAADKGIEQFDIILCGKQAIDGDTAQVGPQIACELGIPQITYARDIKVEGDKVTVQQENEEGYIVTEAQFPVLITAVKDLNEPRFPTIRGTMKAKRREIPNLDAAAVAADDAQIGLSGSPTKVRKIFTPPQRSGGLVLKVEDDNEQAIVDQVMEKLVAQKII
T1 sequence (G0VLZ5 1-338): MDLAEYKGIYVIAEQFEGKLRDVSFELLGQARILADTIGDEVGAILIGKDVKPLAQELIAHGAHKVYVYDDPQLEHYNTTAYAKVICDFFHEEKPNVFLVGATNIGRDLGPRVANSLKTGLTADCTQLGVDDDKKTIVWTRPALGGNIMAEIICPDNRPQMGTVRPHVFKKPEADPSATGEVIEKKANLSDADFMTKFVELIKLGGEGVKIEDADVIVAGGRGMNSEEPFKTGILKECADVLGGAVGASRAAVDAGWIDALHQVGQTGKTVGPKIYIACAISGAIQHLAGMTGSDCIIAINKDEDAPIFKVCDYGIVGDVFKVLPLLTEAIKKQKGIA
T1 sequence (G0VLZ7 1-383 partner): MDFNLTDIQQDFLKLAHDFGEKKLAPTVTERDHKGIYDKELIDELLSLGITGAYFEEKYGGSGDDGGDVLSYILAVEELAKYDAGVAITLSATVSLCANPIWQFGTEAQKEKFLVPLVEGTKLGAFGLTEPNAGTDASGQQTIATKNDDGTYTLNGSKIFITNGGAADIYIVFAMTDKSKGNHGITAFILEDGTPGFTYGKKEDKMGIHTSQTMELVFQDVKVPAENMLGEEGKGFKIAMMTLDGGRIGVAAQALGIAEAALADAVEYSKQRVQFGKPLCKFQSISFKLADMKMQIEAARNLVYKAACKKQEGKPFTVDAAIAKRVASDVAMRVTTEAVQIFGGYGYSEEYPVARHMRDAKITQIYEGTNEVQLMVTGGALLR

[2] = target: T2, EtfAB:bcd (crotonyl-CoA-dependent NADH:ferredoxin oxidoreductase), crotonyl-CoA site on bcd (Megasphaera elsdenii, UniProt G0VLZ7); test: stopped-flow reoxidation of dithionite-reduced complex; charge-transfer absorbance; oxidative titration; format: biochemical; conditions: fully reduced EtfAB:bcd; 50 mM Tris-HCl, 150 mM NaCl, pH 7.5, 10 °C; anaerobic; no ferredoxin
T2 construct: gene MELS_2128; same complex as P1; bcd freed of persulfide-CoA adduct by dithionite; C-terminal Strep-II tags, E. coli BL21; with Electron transfer flavoprotein subunit alpha; Electron transfer flavoprotein subunit beta
T2 sequence (G0VLZ7 1-383): T1 sequence (G0VLZ7 1-383 partner)
T2 sequence (G0VLZ5 1-338 partner): T1 sequence (G0VLZ5 1-338)
T2 sequence (G0VLZ6 1-270 partner): T1 sequence (G0VLZ6 1-270)

Row | pKd [1] | SMILES | stopped-flow reoxidation of dithionite-reduced complex; charge-transfer absorban [2]
1 | 4.37 | NC(=O)C1=CN([C@@H]2O[C@H](COP(=O)(O)OP(=O)(O)OC[C@H]3O[C@@H](n4cnc5c(N)ncnc54)[C@H](O)[C@@H]3O)[C@@H](O)[C@H]2O)C=CC1 [NADH] | 
2 |  | C/C=C/C(=O)SCCNC(=O)CCNC(=O)[C@H](O)C(C)(C)COP(=O)(O)OP(=O)(O)OC[C@H]1O[C@@H](n2cnc3c(N)ncnc32)[C@H](O)[C@@H]1OP(=O)(O)O [crotonyl-CoA] | reoxidation of dithionite-reduced EtfAB:bcd6e- by crotonyl-CoA, which exhibits a [crotonyl-CoA]-independent rate constant
